{"source": "patent US20250263457A1", "about": "“Pharmaceutical Composition for Preventing and Treating Liver Disease Comprising Novel Peptide” (Pusan National University Industry-University Cooperation …, priority 2024, published 2025)", "key": {"[1]": {"system": "CD44", "assay": "CD44 and CD44ICD expression in liver tissue of mouse model (IHC, Western blot)", "format": "in vivo, C57BL/6 male mice", "conditions": "3.3 μg/kg i.p. every other day for three weeks", "description": "(§1) To prepare alcohol-related liver disease mice, 8-week-old C57BL/6 male mice were fed with a Lieber DeCarli liquid diet (Dyets, 710260) containing 5% EtOH for 9 weeks, and then injected intraperitoneally with a vehicle (PBS) every other day along with feeding liquid diet for additional 3 weeks. As a control group for the EtOH diet, mice fed with a pair Lieber DeCarli liquid diet (Dyets, 710027) having the same total calories as the EtOH diet were used (FIG. 4A).\n(§2) The alcohol-related liver disease mouse model established by the method of Example 5.1 was administered vehicle (PBS) or peptide YJ (3.3 μg/kg) intraperitoneally every other day for three weeks, and then blood was collected and liver tissue was extracted to confirm the liver disease treatment effect of peptide YJ.\nThe expression of CD44 and CD44ICD in liver tissues extracted from the experimental mice of Example 5.3, or nuclear proteins or whole proteins (whole lysate) of liver tissues, was confirmed through immunohistochemical staining and Western blot. The immunohistochemical staining was performed using anti-CD44 antibody and anti-CD44ICD antibody by the method of Example 5.2.3, and Western blot was performed by the method of Examples 2 and 4."}, "[2]": {"system": "alcohol-related liver disease mouse model", "assay": "Liver size/weight and serum AST/ALT in alcohol-related liver disease mouse model", "format": "in vivo, C57BL/6 male mice", "procedure": "as §1\nSpecifically, 20 μl of mouse serum was mixed with 100 μl of a GOT buffer or GPT buffer, and then reacted at 37° C. Thereafter, the mixture was added with a 0.0198% 2,4-dinitrophenylhydrazine colorimetric solution (100 μl), and then further reacted at room temperature for 20 minutes. Thereafter, the mixture was added with 0.4 N NaOH (1 ml) to terminate the reaction, and absorbance (505 nm) was measured. The absorbance was expressed in international units per liter (IU/L).\nas §2\nThe weight and degree of tissue damage of the liver tissue extracted from the experimental mice of Example 5.3 were measured in the same manner as in Example 5.2.1."}, "[3]": {"system": "alcohol-related liver disease mouse model", "assay": "Triglyceride accumulation in liver tissue of alcohol-related liver disease mouse model", "format": "in vivo, C57BL/6 male mice", "conditions": "3.3 μg/kg i.p. every other day for three weeks", "description": "as §1\nTriglycerides in the liver tissue obtained by the method of Example 5.2 were measured using the following method.\nIn addition, the accumulation of triglycerides in the liver tissue was confirmed using Oil red O staining.\nSpecifically, the liver tissue extracted from the mice was embedded in OCT and frozen-stored at −80° C. The liver tissue embedded in OCT was cut into 6 μm-thick sections to produce tissue section slides and then fixed by treating 4% paraformaldehyde. The tissue section slides were washed with distilled water and treated with 100% propylene glycol ([…], Sigma-Aldrich), and triglycerides were stained with Oil Red O (Sigma-Aldrich). After staining, the section slides were washed with 60% PEG, and the nuclei were counterstained with hematoxylin. The liver tissue section slides produced as described above were observed under a microscope to confirm the accumulation of triglycerides in the liver tissue. […]"}, "[4]": {"system": "human pHSCs", "assay": "Cell survival of human pHSCs by MTS assay", "format": "cell-based", "conditions": "0, 20, 40, or 100 ng/ml; 24 and 48 hours; vs PBS control (FIG. 2B)", "procedure": "100 μl of human pHSCs (5×10^4 cells/ml) were seeded into 96 wells and cultured overnight. The cells were treated with peptide YJ at a concentration of 0, 20, 40, or 100 ng/ml and then further cultured. After 24 and 48 hours, cell survival for each cell was confirmed through MTS assay (Cell titer proliferation assay, G3580, Promega) (FIG. 2A). At this time, human pHSCs treated with PBS were used as a control group (vehicle)."}, "[5]": {"system": "human pHSCs", "assay": "RT-qPCR and Western blot of fibrosis/activation markers in human pHSCs", "format": "cell-based", "conditions": "40 ng/ml, 24 and 48 hours, vs control (FIGS. 3C, 3D)", "procedure": "In addition, after pHSCs were treated with peptide YJ for 24 and 48 hours by the same method as above, respectively, RNA and protein were extracted (whole lysate) and the expression of pHSCs activation markers was confirmed through RT-qPCR (FIG. 3C) and Western blot (FIG. 3D). Western blot was performed using the same method as in Example 2, and RNA extraction and RT-qPCR were performed as follows. At this time, human pHSCs treated with PBS were used as a control group.\nFirst, total RNA was extracted from each cell using a Trizol solution (Invitrogen, 15596-026), and then the concentration and purity of RNA were confirmed using a nanodrop. Thereafter, complementary DNA (cDNA) was synthesized using the RNA as a template using the SuperScript First-strand Synthesis System (Invitrogen, 18064014). The cDNA synthesized by the method was used as sample DNA in quantitative real-time PCR (qPCR).\nThe quantitative real-time PCR (qPCR) was performed using Power SYBR Green Master Mix (Applied Biosystem), and the results were analyzed by a […] method. The qPCR results were analyzed for significance using Mean±SEM values of three independent experiments through one-way ANOVA followed by post hoc Tukey's test."}, "[6]": {"conditions": "EtOH diet group, vs vehicle, Western blot (FIG. 8B)"}, "[7]": {"conditions": "3.3 μg/kg i.p. every other day for three weeks, EtOH diet group, vs vehicle (FIG. 6C)"}}}
{"substance": "peptide YJ: TSG-6 fragment: core domain RSGKYKLTYAEAKA plus C-terminal extension VCEFEGGHLATYKQLEAARKIGFHVCAAGWMAK (SEQ ID NO: 9); TSG-6 mimetic (RSGKYKLTYAEAKAVCEFEGGHLATYKQLEAARKIGFHVCAAGWMAK; peptide 4)", "values": [{"measurement": "expression of CD44ICD in whole lysate of liver tissue", "setting": "[1]; [6]", "result": "reduced"}, {"measurement": "expression of CD44 in whole lysate of liver tissue", "setting": "[1]; [6]", "result": "reduced"}, {"measurement": "expression of CD44ICD in nuclear protein of liver tissue", "setting": "[1]; EtOH diet group, vs vehicle, Western blot (FIG. 8C)", "result": "significantly reduced"}, {"measurement": "expression of CD44 in liver tissue", "setting": "[1]; immunohistochemical staining (FIG. 8A)", "result": "decreased"}, {"measurement": "serum ALT level", "setting": "[2]; [7]", "result": "decreased"}, {"measurement": "serum AST level", "setting": "[2]; [7]", "result": "decreased"}, {"measurement": "size and weight of the liver tissue", "setting": "[2]; 3.3 μg/kg intraperitoneally every other day for three weeks, between groups (FIGS. 6A, 6B)", "result": "did not show statistically significant differences"}, {"measurement": "amount of triglycerides in the liver tissue", "setting": "[3]; EtOH diet group, vs vehicle (FIG. 6D)", "result": "significantly reduced"}, {"measurement": "size and number of lipid droplet in the liver tissue", "setting": "[3]; H&E staining (FIG. 6E)", "result": "significantly reduced"}, {"measurement": "cell survival and proliferation", "setting": "[4]", "result": "no changes in cell survival and proliferation were observed"}, {"measurement": "expression of COL1α1", "setting": "[5]; RT-qPCR and Western blot", "result": "decreased"}, {"measurement": "expression of CTGF", "setting": "[5]; RT-qPCR and Western blot", "result": "decreased"}, {"measurement": "expression of TGF-β", "setting": "[5]; RT-qPCR and Western blot", "result": "decreased"}, {"measurement": "expression of TIMP1", "setting": "[5]; RT-qPCR and Western blot", "result": "decreased"}, {"measurement": "expression of α-SMA", "setting": "[5]; RT-qPCR and Western blot", "result": "decreased"}, {"measurement": "expression of GFAP (inactivation marker of pHSCs)", "setting": "[5]", "result": "increased"}]}
